Test results from patent EP0564461B1, “THE USE OF ANTIBODIES TO TNF OR FRAGMENTS DERIVED THEREOF AND XANTHINE DERIVATIVES FOR COMBINATION THERAPY AND COMPOSITIONS THEREFOR” (CELLTECH THERAPEUTICS LIMITED, priority 1990, dated 1992).
Read-outs that look alike come from different tables or passages of the source.

Tests used:
[1] = system: Salmonella abortus equi LPS induced shock; assay: Salmonella abortus equi LPS induced shock model in galactosamine sensitised mice (inhibition of mortality); type: in vivo, C57BL mice; conditions: 100mg/kg pentoxifylline alone; Fig 5
Experimental: Similar experiments to those described above were carried out in galactosamine sensitised C57BL mice which were challenged with LPS from Salmonella abortus equi. Mortality was measured 96 hrs after the LPS challenge.

E.coli LPS induced shock = conditions: Fig 1
Experimental: In a first experiment outbred mice were divided into groups and received treatment either with a hamster anti-murine TNF antibody TN3 19.12 or with the xanthine derivative, pentoxifylline.
Each group of animals received 60mg/kg E.coli LPS by intravenous injection into a tail vein.
Those groups of animals treated with TN3 19.12 received between 0.1 and 30mg/kg of the antibody by intravenous injection of 0.1ml of liquid into the tail vein 2 hours before LPS administration.
Those groups to be treated with pentoxifylline received between 1mg/kg and 300mg/kg intravenously five minutes prior to LPS administration.
In control experiments animals received an injection of an equivalent volume of saline.
The groups received one of three different treatment as follows: • A) Control - received 60mg/kg E.coli LPS intravenously followed by saline injection; • B) Received 1mg/kg TN3 19.12 i.v. 2 hrs prior to challenge with 60mg/kg E.coli LPS i.v. and 1mg/kg pentoxifylline i.v. 5 mins prior to challenge; • C) As B) but these mice also received repeat doses of 1mg/kg pentoxifylline 24,48 and 72 hours after LPS challenge.

Question: How did the “protective effect (mortality)” value [1] turn out when `CC(=O)CCCCn1c(=O)c2c(ncn2C)n(C)c1=O` [pentoxifylline, 3,7-dimethyl-1-(5-oxohexyl)xanthine] was run?
Answer: Its value is “no protective effect”.

Question: And the “effect on mortality (mean deaths per experiment)” value (E.coli LPS induced shock; pentoxifylline alone 1mg/kg i.v. five minutes prior to 60mg/kg E.coli LPS i.v.)?
Answer: Its value is “no effect”.

Question: And the “effect on mortality (mean deaths per experiment)” value (E.coli LPS induced shock; pentoxifylline alone at higher doses than 1mg/kg (up to 300mg/kg) i.v. five minutes prior to LPS)?
Answer: The value was “accelerated mortality”.
